PMC11561238, “Discovery and binding mode of small molecule inhibitors of the apo form of human TDO2” (Scientific Reports, 2024)
“And” between values parts separate entries of the source, which are not always exact repeats. Equal values may be shown once.

Legend:
apo-TDO2 = biological target: T1, apo-TDO2 (Homo sapiens, UniProt P48775); test: Differential scanning fluorimetry (thermal shift) of apo-TDO2; assay type: binding
T1 construct: a longer construct (His6-aa19-406, with aa406 corresponding to the wild type C-terminal residue), which was used for DSF and other experiments; made in house; host or cells: E. coli RP523 (hemB mutant, unable to synthesize heme)
T1 sequence (P48775 19-406): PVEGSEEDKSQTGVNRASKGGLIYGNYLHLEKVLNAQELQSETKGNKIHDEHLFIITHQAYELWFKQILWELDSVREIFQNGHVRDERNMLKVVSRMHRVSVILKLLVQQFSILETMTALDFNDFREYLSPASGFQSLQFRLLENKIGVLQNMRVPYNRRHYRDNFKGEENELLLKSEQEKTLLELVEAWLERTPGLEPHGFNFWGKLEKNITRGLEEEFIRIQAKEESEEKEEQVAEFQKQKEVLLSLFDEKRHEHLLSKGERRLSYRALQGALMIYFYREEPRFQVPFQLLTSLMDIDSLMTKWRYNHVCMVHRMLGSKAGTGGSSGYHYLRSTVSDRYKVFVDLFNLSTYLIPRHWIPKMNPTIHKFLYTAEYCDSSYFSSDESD
Experimental: […] S5 online).
Protein thermal stability and small molecule ligand binding of TDO2 in vitro was studied using differential scanning fluorimetry (DSF, also known as thermal shift assay)[34]. Assay ingredients and ligands were combined to obtain a mixture composed of 10 µM TDO2 and 10x SYPRO Orange, in assay buffer (50 mM HEPES-NaOH pH 8.0, 200 mM NaCl, 2 mM TCEP, 10% glycerol) and 2% final DMSO concentration. Small molecule chemical ligands were taken from DMSO stock solution (100 mM, 10 mM) and diluted in DMSO transferred to wells of PCR Plates (Micro Amp Fast 96-well Reaction Plates, Applied Biosystems) to ensure matching final DMSO concentrations.
DSF was carried out with a StepOnePlus™ real time PCR system. Thermal denaturation of TDO2 was monitored with a ramp rate of 1 K/min. Protein melting curves were evaluated using the Thermal Shift Software v 1.3. (Thermo Fisher Scientific) to derive differences in midpoint melting-temperatures (derivative model). The thermal shift (DTm) is documented as the difference between the reference midpoint melting temperature of proteins (containing 500 µM AMT) in the presence of the ligand vehicle (DMSO) and in the presence of ligand.
Supplementary Table S2. Differential scanning fluorimetry data corresponding to supplementary figure S4. The experiments were carried out in quadruplicate, or in triplicate where single outlier values (highlighted in bold italics) were excluded from calculation of the melting curves. AMT was added at a concentration of 500 µM; […] and […] were added at a concentration of 25 µM.

holo-TDO2 = tested on: holo-TDO2; parameters: method as in PMID 27762317; conditions: AMT bound to exosite; cited from earlier work
[1] = tested on: patients with unresectable or metastatic melanoma; parameters: method as in PMID 31221619; conditions: with pembrolizumab, vs placebo; cited from earlier work
[2] = apo-TDO2 + AMT 500 µM alone, shift vs apo, single replicates, in °C

Structure (SMILES)	melting temperature of apo-TDO2 in the absence of inhibitor (apo-TDO2; 500 µM AMT present) [°C]	Δ Tm Boltzmann (apo-TDO2; [2])	Δ Tm Derivative (apo-TDO2; [2])	Tm Boltzmann (apo-TDO2; apo-TDO2 + AMT 500 µM alone, single replicates (text b14 gives °C), in °C)	Tm Derivative (apo-TDO2; apo-TDO2 + AMT 500 µM alone, single replicates, in °C)	effect on catalytic properties of holo-TDO2 (holo-TDO2)	effect on proteolytic degradation of holo-TDO2 (holo-TDO2)	stabilization of isolated holo-TDO2 enzyme (holo-TDO2)	progression-free survival or overall survival [1]
C[C@](N)(Cc1c[nH]c2ccccc12)C(=O)O [AMT, α-methyltryptophan, reference compound]	59.2	9.95 and 10.71 and 10.46	9.6 and 10.48 and 10.27	58.75 and 59.51 and 59.26	58.49 and 59.36 and 59.16	not affecting the catalytic properties	prevented its proteolytic degradation by the ubiquitin-dependent proteasomal pathway	stabilized the isolated holo-TDO2 enzyme against heat, urea and proteases	–
NS(=O)(=O)NCCNc1nonc1C(=NO)Nc1ccc(F)c(Br)c1 [epacadostat]	–	–	–	–	–	–	–	–	failed to show improved progression-free survival or overall survival compared with placebo
